Values of other authors, collected in patent US10780172B2, “Docetaxel and human serum albumin complexes” (Zhuhai Beihai Biotech Co., Ltd., priority 2015, dated 2020).
Entries after “also recorded” stand apart in the source; their conditions may differ.

protein bound (plasma proteins; in vitro studies, mainly to al-acid glycoprotein, albumin, and lipoproteins): about 94%
in vitro binding to plasma proteins (plasma proteins; three cancer patients): approximately 97%
Compound: CC(=O)O[C@@]12CO[C@@H]1C[C@H](O)[C@@]1(C)C(=O)[C@H](O)C3=C(C)[C@@H](OC(=O)[C@H](O)[C@@H](NC(=O)OC(C)(C)C)c4ccccc4)C[C@@](O)([C@@H](OC(=O)c4ccccc4)[C@H]21)C3(C)C [Docetaxel]
water solubility: practically insoluble in water; also recorded: very poor water solubility
potency relative to paclitaxel in inhibiting microtubule depolymerization (microtubule): about twice as potent as paclitaxel
